# ChEMBL document CHEMBL6103545, “Discovery of GS-2278, a Potent and Selective LPAR1 Antagonist for the Treatment of Idiopathic Pulmonary Fibrosis” (J Med Chem, 2025)
# Assays:
# [1] = Half-life in male Sprague-Dawley rat at 5 mg/kg, po measured after 24 hrs by LC/MS/MS analysis; format: ADME, organism-based; details: in vivo
# [2] = Plasma protein binding in cynomolgus monkey assessed as unbound fraction at 2 uM incubated for 24 hrs by LC-MS analysis; format: ADME, cell-free, Macaca fascicularis
# [3] = biological target: Voltage-gated inwardly rectifying potassium channel KCNH2 (Homo sapiens, UniProt Q12809); test: Inhibition of human ERG; format: toxicity
# [4] = biological target: T1, Lysophosphatidic acid receptor 1 (Homo sapiens, UniProt Q92633); test: Antagonist activity at human LPA1 receptor expressed in HEK293 cells assessed as Galpha15 effector recruitment incubated for 10 mins by BRET assay; format: functional, cell-based
# [5] = biological target: T1, Lysophosphatidic acid receptor 1; test: Antagonist activity at human LPA1 receptor expressed in HEK293 cells assessed as Galpha12 effector recruitment incubated for 10 mins by BRET assay; format: functional, cell-based
# [6] = Half-life in Beagle dog at 5 mg/kg, po measured after 24 hrs by LC/MS/MS analysis; format: ADME, organism-based, Canis lupus familiaris; details: in vivo
# [7] = Toxicity in telemetry implanted Beagle dog CNS at 30 mg/kg/day, po measured upto 24 hrs by radiotelemetry based electroencephalogram analysis; format: organism-based, Canis lupus familiaris; details: in vivo
# [8] = Oral bioavailability in male Sprague-Dawley rat at 5 mg/kg measured after 24 hrs by LC/MS/MS analysis; format: ADME, organism-based; details: in vivo
# [9] = Half-life in cynomolgus monkey at 5 mg/kg, po measured after 24 hrs by LC/MS/MS analysis; format: ADME, organism-based, Macaca fascicularis; details: in vivo
# [10] = Oral bioavailability in Beagle dog at 5 mg/kg measured after 24 hrs by LC/MS/MS analysis; format: ADME, organism-based, Canis lupus familiaris; details: in vivo
# [11] = biological target: T1, Lysophosphatidic acid receptor 1; test: Antagonist activity at LPA1 receptor in human TWNT-4 cells pre-incubated for 1 hr followed by LPA stimulation and measured after 30 min in presence of 4% human serum albumin by MRTF-A assay; format: cell-based
# P-gp (human) [12] = test: Apparent permeability from basolateral to apical side of human P-gp transfected MDCK cells measured after 20 min by LC/MS/MS analysis; format: ADME, cell-based, Canis lupus familiaris; details: dog, MDCK-MDR1
# [13] = Plasma protein binding in human assessed as unbound fraction at 2 uM incubated for 24 hrs by LC-MS analysis; format: ADME, cell-free
# Cytochrome P450 1A2 = biological target: T2, Cytochrome P450 1A2 (Homo sapiens, UniProt P05177); test: Inhibition of CYP1A2 (unknown origin) using midazolam as substrate; format: ADME
# T2 sequence (P05177 whole entry): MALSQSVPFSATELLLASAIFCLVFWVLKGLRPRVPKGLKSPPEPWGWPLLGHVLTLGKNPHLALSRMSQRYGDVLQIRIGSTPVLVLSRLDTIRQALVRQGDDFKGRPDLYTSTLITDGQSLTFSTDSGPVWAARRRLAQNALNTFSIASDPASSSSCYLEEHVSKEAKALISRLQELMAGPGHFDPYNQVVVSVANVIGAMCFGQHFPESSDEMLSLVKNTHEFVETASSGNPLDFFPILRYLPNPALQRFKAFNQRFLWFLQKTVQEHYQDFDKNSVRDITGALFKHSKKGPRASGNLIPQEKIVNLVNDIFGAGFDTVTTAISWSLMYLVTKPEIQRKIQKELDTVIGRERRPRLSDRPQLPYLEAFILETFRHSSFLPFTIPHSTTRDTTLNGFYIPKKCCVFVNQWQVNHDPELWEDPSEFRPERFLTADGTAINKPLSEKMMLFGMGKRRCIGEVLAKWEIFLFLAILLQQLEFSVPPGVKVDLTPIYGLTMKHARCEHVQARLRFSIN
# [14] = Plasma protein binding in human assessed as unbound fraction incubated for 24 hrs by equilibrium dialysis based Rapidfire-QToF mass spectrometric analysis; format: ADME, cell-free
# [15] = biological target: T1, Lysophosphatidic acid receptor 1; test: Displacement of [3H]LPA from human LPA1 receptor overexpressed in CHO cell membrane assessed as inhibition constant incubated for 90 min by competitive radioligand binding assay; format: cell membranes
# [16] = biological target: T1, Lysophosphatidic acid receptor 1; test: Antagonist activity at LPA1 receptor in serum starved human TWNT-4 cells assessed as nuclear translocation pre-incubated for 1 hr followed by LPA stimulation and measured after 30 min by MRTF-A assay; format: cell-based
# [17] = biological target: Lysophosphatidic acid receptor 5 (Homo sapiens, UniProt Q9H1C0); test: Antagonist activity at human LPA5 receptor overexpressed in CHO cells pre-incubated for 1 hr followed by LPA addition by fluorescence based FLIPR calcium assay; format: functional, cell-based
# [18] = Apparent permeability from basolateral to apical side in human Caco-2 cells at 10 uM; format: ADME, cell-based
# P-gp (human) [19] = test: Apparent permeability from apical to basolateral side of human P-gp transfected MDCK cells measured after 20 min by LC/MS/MS analysis; format: ADME, cell-based, Canis lupus familiaris; details: dog, MDCK-MDR1
# Cytochrome P450 2D6 = Cytochrome P450 2D6 (Homo sapiens, UniProt P10635); test: Inhibition of CYP2D6 (unknown origin) using midazolam as substrate; format: ADME
# [20] = Volume of distribution in male Sprague-Dawley rat at 1 mg/kg, iv s measured after 24 hrs by LC/MS/MS analysis; format: ADME, organism-based; details: in vivo
# [21] = Toxicity in Beagle dog CNS at 10 mg/kg/day, po measured after 28 days by radiotelemetry; format: organism-based, Canis lupus familiaris; details: in vivo, 672 h, time 28 day
# [22] = Oral bioavailability in cynomolgus monkey at 5 mg/kg measured after 24 hrs by LC/MS/MS analysis; format: ADME, organism-based, Macaca fascicularis; details: in vivo
# [23] = biological target: T3, Solute carrier organic anion transporter family member 1B1 (Homo sapiens, UniProt Q9Y6L6); test: Inhibition of OATPB1P1 in human hepatocyte by LC-MS analysis; format: cell-based
# T3 sequence (Q9Y6L6 whole entry): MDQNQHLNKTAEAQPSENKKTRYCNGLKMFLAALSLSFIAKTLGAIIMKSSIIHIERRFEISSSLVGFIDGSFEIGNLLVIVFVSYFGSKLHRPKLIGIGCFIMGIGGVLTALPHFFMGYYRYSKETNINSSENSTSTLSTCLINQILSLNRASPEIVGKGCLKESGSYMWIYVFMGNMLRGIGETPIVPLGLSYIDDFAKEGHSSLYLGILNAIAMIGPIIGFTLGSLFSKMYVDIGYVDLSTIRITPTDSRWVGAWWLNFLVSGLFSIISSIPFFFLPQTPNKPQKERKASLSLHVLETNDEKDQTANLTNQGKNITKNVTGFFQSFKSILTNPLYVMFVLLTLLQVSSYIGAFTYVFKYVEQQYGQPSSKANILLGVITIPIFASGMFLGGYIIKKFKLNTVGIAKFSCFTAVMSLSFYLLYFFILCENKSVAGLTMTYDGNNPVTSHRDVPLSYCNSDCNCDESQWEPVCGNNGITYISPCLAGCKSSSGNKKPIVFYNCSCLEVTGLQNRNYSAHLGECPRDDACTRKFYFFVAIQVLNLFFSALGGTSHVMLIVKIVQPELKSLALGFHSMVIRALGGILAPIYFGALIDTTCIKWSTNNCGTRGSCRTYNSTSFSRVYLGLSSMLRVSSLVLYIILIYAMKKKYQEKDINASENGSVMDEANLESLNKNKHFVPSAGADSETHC
# [24] = Volume of distribution in cynomolgus monkey at 1 mg/kg, iv measured after 24 hrs by LC/MS/MS analysis; format: ADME, organism-based, Macaca fascicularis; details: in vivo
# [25] = Metabolic stability in male Sprague-Dawley rat liver microsomes assessed as intrinsic clearance at 1 uM by LC/MS/MS analysis; format: ADME, Microsome; details: read-out: CLH (converted)
# [26] = Apparent permeability across apical to basolateral side in cMDR1 knockout MDCK-II cells incubated upto 240 mins by RF-QToF analysis; format: ADME, cell-based, Canis lupus familiaris; details: dog
# T1 sequence (Q92633 whole entry): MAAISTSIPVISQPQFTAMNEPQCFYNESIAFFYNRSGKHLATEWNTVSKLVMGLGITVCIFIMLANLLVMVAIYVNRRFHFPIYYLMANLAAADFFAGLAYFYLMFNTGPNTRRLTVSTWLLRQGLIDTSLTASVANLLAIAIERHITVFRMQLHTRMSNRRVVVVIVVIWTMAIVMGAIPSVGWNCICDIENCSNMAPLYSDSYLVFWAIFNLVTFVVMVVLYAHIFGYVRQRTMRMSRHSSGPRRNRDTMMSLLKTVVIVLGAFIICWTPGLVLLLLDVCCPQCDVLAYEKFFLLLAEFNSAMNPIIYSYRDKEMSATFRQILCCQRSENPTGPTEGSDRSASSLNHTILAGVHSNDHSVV
# Sequence of Lysophosphatidic acid receptor 5 (Q9H1C0 whole entry): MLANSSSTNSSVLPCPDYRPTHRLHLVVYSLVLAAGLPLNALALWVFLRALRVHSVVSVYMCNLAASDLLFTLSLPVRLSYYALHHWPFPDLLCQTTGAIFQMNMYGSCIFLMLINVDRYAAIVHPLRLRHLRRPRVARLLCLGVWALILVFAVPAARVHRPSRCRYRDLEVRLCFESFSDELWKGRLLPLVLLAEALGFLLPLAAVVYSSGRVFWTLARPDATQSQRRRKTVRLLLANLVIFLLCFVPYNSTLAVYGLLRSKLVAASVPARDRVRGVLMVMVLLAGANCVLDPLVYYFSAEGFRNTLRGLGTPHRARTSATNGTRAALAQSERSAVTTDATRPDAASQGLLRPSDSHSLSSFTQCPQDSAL
# Sequence of Voltage-gated inwardly rectifying potassium channel KCNH2 (Q12809 whole entry): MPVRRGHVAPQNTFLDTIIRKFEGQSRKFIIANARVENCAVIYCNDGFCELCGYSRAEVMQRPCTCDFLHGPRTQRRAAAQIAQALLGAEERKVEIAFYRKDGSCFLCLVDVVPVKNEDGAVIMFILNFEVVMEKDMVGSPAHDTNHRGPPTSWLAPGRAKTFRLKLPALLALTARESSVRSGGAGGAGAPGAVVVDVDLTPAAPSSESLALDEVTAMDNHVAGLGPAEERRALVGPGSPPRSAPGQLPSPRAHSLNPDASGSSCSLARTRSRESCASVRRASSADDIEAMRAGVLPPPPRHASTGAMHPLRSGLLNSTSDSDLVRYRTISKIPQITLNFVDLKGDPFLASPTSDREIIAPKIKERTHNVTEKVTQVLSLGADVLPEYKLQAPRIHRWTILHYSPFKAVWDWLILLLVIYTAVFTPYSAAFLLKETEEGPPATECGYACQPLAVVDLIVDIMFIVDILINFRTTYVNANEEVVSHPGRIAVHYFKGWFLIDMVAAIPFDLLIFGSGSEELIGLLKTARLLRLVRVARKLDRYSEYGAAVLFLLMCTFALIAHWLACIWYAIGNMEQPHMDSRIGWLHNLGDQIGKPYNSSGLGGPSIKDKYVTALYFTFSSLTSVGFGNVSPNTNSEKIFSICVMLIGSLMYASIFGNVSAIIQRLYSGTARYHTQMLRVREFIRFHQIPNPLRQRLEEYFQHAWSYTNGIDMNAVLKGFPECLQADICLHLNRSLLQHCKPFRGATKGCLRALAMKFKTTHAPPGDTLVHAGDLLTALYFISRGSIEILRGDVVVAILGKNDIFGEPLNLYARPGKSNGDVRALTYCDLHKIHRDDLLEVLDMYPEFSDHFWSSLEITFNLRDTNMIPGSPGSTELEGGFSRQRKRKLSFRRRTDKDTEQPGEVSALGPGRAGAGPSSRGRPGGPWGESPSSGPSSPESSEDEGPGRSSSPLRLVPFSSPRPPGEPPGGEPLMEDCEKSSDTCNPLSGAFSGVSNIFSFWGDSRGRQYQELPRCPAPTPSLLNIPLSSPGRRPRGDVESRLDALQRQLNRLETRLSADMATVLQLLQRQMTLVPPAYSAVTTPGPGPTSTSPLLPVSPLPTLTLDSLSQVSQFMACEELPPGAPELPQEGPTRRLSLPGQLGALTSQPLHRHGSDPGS
# Sequence of Cytochrome P450 2D6 (P10635 whole entry): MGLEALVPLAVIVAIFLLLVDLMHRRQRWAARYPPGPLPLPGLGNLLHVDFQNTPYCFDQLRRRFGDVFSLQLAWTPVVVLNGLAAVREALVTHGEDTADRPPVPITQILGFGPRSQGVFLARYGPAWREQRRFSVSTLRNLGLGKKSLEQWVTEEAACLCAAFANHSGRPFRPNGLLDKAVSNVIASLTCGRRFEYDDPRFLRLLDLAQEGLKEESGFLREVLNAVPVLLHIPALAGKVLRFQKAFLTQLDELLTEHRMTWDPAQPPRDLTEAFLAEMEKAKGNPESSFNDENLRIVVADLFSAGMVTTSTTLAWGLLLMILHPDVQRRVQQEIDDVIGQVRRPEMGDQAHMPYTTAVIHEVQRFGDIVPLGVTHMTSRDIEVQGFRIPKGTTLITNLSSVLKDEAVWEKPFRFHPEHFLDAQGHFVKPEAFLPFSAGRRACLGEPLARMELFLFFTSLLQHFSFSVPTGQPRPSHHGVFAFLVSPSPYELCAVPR
smiles,measurement,setting,value
C[C@@H](OC(=O)Nc1c(-c2ccc(NC(=O)c3cnc(C(F)(F)F)nc3)cn2)nnn1C)c1cc(F)cnc1F,half-life,[1],3.9 h
same,"fraction unbound at 24 h, 2 µM",[2],0.24
same,IC50,[3],> 30000 nM
same,EC50,[4],46.1 nM
same,EC50,[5],107 nM
same,half-life,[6],2.9 h
same,Activity,[7],Non-toxic
same,bioavailability,[8],40%
same,half-life,[9],3.9 h
same,bioavailability,[10],49%
same,EC50,[11],34 nM
same,Papp B→A at 20 min,P-gp (human) [12],11 ×10⁻⁶ cm/s
same,"fraction unbound at 24 h, 2 µM",[13],0.14
same,inhibition (INH),Cytochrome P450 1A2,Not_active
same,fraction unbound at 24 h,[14],0.19
same,Ki,[15],60 nM
same,EC50,[16],12 nM
same,EC50,[17],> 10000 nM
same,Papp B→A at 10 µM,[18],17 ×10⁻⁶ cm/s
same,Papp A→B at 20 min,P-gp (human) [19],0.3 ×10⁻⁶ cm/s
same,inhibition (INH),Cytochrome P450 2D6,Not_active
same,Vd,[20],0.8 L/kg
same,Activity,[21],Non-toxic
same,bioavailability,[22],43%
same,IC50,[23],13000 nM
same,Vd,[24],0.8 L/kg
same,CLint scaled at 1 µM,[25],16.3 mL/min/kg
same,Papp A→B at 4 h,[26],11 ×10⁻⁶ cm/s
